Measurements taken from ChEMBL document CHEMBL3526141, “Characterization of human liver enzymes involved in the biotransformation of boceprevir, a hepatitis C virus protease inhibitor” (Drug Metab Dispos, 2011).

T1: Cytochrome P450 4F3 (Homo sapiens, UniProt Q08477)
T1 sequence (Q08477 whole entry): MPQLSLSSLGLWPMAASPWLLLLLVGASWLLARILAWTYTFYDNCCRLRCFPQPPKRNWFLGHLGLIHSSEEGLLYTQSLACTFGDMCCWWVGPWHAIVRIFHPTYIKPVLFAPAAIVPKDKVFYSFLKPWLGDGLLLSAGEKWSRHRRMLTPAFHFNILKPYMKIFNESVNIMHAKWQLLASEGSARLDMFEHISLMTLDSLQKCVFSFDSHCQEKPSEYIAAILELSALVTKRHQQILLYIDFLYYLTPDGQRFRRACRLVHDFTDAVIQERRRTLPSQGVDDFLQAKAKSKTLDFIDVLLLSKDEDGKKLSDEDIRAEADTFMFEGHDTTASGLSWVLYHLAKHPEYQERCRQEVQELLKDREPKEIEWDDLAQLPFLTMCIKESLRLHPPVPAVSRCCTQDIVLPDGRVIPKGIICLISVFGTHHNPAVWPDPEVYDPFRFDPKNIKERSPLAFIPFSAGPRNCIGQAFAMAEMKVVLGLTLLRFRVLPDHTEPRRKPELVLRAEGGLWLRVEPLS

T2: Cytochrome P450 2B6 (Homo sapiens, UniProt P20813)
T2 sequence (P20813 whole entry): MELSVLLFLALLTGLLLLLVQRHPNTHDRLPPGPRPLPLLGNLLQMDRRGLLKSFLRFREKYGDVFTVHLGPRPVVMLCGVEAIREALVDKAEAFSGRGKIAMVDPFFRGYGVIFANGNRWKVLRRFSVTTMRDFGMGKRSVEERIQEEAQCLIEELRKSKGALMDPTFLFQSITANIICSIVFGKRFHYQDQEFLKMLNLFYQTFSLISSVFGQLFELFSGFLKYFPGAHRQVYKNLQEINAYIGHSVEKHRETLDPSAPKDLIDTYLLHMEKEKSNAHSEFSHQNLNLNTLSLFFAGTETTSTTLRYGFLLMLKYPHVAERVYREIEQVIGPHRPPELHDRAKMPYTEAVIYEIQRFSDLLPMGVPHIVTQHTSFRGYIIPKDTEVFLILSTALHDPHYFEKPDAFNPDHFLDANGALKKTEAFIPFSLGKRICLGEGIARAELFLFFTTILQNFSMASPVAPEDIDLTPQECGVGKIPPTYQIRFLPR

T3: Cytochrome P450 1A1 (Homo sapiens, UniProt P04798)
T3 sequence (P04798 whole entry): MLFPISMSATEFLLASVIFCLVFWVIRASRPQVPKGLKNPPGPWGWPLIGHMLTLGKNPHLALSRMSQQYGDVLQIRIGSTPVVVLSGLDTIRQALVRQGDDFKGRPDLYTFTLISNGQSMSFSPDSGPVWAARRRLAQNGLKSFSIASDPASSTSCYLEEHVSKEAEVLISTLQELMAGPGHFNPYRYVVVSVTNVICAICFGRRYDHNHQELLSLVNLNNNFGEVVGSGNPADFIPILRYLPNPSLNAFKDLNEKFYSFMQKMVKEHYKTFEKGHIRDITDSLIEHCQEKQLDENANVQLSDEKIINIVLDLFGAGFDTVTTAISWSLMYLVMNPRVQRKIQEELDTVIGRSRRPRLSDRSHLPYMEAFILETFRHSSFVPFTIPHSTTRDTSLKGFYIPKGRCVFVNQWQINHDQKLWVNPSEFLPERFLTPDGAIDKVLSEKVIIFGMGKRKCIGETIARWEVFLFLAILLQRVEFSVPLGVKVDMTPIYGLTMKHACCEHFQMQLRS

T4: Cytochrome P450 1A2 (Homo sapiens, UniProt P05177)
T4 sequence (P05177 whole entry): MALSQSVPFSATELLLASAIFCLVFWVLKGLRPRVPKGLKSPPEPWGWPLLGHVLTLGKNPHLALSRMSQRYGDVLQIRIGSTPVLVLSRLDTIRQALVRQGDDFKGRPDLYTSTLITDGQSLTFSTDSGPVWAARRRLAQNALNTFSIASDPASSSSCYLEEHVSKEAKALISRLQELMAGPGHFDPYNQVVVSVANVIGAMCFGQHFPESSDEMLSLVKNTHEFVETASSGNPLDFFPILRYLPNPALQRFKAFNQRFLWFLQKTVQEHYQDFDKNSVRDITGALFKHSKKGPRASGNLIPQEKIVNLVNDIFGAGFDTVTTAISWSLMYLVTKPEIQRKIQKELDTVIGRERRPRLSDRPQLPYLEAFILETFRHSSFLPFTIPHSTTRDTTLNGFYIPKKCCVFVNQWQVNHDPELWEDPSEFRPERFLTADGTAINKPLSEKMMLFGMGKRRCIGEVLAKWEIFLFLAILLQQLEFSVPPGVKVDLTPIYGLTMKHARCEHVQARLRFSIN

B1: Aldo-keto reductase family 1 member C2 (Homo sapiens) (protein)
chain: MDSKYQCVKLNDGHFMPVLGFGTYAPAEVPKSKALEAVKLAIEAGFHHIDSAHVYNNEEQVGLAIRSKIADGSVKREDIFYTSKLWSNSHRPELVRPALERSLKNLQLDYVDLYLIHFPVSVKPGEEVIPKDENGKILFDTVDLCATWEAMEKCKDAGLAKSIGVSNFNHRLLEMILNKPGLKYKPVCNQVECHPYFNQRKLLDFCKSKDIVLVAYSALGSHREEPWVDPNSPVLLEDPVLCALAKKHKRTPALIALRYQLQRGVVVLAKSYNEQRIRQNVQVFEFQLTSEEMKAIDGLNRNVRYLTLDIFAGPPNYPFSDEY

Legend:
[1] = system: Liver microsome; experiment: Drug metabolism in human liver microsomes treated with 5 uM [14C]boceprevir assessed as compound formation by LC-MS/FSA method relative to total [14C]boceprevir; assay type: ADME
[2] = molecular target: T1, Cytochrome P450 4F3; experiment: Drug metabolism assessed as human CYP4F3A-mediated compound formation from 5 uM [14C]boceprevir after 120 mins by LC-MS/FSA method relative to total [14C]boceprevir; assay type: ADME; conditions: recombinant enzyme, 2 h
[3] = system: Liver microsome; experiment: Drug metabolism in human liver microsomes treated with 20 uM [14C]boceprevir assessed as compound formation by LC-MS/FSA method relative to total [14C]boceprevir; assay type: ADME
[4] = molecular target: Cytochrome P450 2C19 (Homo sapiens, UniProt P33261); experiment: Drug metabolism assessed as human CYP2C19-mediated compound formation from 5 uM [14C]boceprevir after 120 mins by LC-MS/FSA method relative to total [14C]boceprevir; assay type: ADME; conditions: recombinant enzyme, 2 h
Chain of Cytochrome P450 2C19 (P33261 whole entry): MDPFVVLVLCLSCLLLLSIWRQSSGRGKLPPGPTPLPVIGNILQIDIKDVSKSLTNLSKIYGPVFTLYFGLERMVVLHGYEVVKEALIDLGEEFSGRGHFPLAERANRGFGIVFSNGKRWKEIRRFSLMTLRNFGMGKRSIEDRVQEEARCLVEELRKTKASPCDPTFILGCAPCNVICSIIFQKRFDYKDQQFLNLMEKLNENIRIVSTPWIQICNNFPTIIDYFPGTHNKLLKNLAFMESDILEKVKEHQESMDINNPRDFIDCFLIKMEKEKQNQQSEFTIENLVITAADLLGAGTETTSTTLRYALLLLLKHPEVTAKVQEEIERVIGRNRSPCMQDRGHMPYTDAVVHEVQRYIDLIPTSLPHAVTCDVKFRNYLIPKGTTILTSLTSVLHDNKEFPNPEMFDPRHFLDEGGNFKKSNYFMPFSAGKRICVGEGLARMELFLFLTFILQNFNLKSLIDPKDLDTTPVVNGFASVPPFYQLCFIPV

[5] = molecular target: T5, Cytochrome P450 3A4 (Homo sapiens, UniProt P08684); experiment: Drug metabolism assessed as human CYP3A4-mediated compound formation from 20 uM [14C]boceprevir after 120 mins by LC-MS/FSA method relative to total [14C]boceprevir; assay type: ADME; conditions: recombinant enzyme, 2 h
T5 sequence (P08684 whole entry): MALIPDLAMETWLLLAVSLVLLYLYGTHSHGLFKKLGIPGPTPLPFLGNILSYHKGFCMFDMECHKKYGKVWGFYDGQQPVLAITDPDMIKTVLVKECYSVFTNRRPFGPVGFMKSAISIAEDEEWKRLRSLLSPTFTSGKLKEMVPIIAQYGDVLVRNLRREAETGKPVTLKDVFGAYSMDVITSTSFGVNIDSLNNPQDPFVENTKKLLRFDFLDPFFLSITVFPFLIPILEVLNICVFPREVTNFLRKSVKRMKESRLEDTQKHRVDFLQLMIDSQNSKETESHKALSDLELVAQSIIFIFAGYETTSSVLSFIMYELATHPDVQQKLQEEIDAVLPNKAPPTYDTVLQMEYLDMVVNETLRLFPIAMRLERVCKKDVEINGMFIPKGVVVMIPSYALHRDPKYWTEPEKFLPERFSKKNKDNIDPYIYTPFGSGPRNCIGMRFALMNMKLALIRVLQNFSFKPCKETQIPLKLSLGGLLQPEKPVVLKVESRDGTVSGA

[6] = Retention time of the compound by LC-MS/MS method; assay type: physicochemical
[7] = system: Plasma; experiment: Drug metabolism in human plasma treated with [14C]boceprevir assessed as ratio of drug level by LC-MS/MS method relative to boceprevir; assay type: ADME, cell-free
[8] = molecular target: T6, Cytochrome P450 3A5 (Homo sapiens, UniProt P20815); experiment: Drug metabolism assessed as human CYP3A5-mediated compound formation from 5 uM [14C]boceprevir after 120 mins by LC-MS/FSA method relative to total [14C]boceprevir; assay type: ADME; conditions: recombinant enzyme, 2 h
T6 sequence (P20815 whole entry): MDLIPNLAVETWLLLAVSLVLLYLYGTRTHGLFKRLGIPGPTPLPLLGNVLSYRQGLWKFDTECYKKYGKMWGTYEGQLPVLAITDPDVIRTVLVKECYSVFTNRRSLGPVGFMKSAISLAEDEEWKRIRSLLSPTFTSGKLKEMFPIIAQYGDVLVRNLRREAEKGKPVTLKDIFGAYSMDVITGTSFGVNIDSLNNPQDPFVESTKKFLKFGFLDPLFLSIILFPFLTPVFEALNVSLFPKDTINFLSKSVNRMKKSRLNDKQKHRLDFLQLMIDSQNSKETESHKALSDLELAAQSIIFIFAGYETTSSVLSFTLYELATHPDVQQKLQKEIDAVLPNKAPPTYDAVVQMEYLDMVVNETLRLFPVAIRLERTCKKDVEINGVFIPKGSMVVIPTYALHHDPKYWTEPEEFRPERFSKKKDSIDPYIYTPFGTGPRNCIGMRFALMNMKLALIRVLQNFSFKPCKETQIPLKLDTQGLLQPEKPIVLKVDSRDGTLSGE

[9] = molecular target: T5, Cytochrome P450 3A4; experiment: Drug metabolism assessed as human CYP3A4-mediated compound formation from 5 uM [14C]boceprevir after 120 mins by LC-MS/FSA method relative to total [14C]boceprevir; assay type: ADME; conditions: recombinant enzyme, 2 h
[10] = molecular target: T2, Cytochrome P450 2B6; experiment: Drug metabolism assessed as human CYP2B6-mediated compound formation from 5 uM [14C]boceprevir after 120 mins by LC-MS/FSA method relative to total [14C]boceprevir; assay type: ADME; conditions: recombinant enzyme, 2 h
[11] = molecular target: T6, Cytochrome P450 3A5; experiment: Drug metabolism assessed as human CYP3A5-mediated compound formation from 20 uM [14C]boceprevir after 120 mins by LC-MS/FSA method relative to total [14C]boceprevir; assay type: ADME; conditions: recombinant enzyme, 2 h
[12] = molecular target: T3, Cytochrome P450 1A1; experiment: (§1) Drug metabolism assessed as human […]-mediated compound formation from 5 uM [14C]boceprevir after 120 mins by LC-MS/FSA method relative to total [14C]boceprevir; assay type: ADME; conditions: recombinant enzyme, 2 h
[13] = molecular target: T4, Cytochrome P450 1A2; experiment: as §1; assay type: ADME; conditions: recombinant enzyme, 2 h
[14] = molecular target: Cytochrome P450 2D6 (Homo sapiens, UniProt P10635); experiment: Drug metabolism assessed as human CYP2D6-mediated compound formation from 5 uM [14C]boceprevir after 120 mins by LC-MS/FSA method relative to total [14C]boceprevir; assay type: ADME; conditions: recombinant enzyme, 2 h
Chain of Cytochrome P450 2D6 (P10635 whole entry): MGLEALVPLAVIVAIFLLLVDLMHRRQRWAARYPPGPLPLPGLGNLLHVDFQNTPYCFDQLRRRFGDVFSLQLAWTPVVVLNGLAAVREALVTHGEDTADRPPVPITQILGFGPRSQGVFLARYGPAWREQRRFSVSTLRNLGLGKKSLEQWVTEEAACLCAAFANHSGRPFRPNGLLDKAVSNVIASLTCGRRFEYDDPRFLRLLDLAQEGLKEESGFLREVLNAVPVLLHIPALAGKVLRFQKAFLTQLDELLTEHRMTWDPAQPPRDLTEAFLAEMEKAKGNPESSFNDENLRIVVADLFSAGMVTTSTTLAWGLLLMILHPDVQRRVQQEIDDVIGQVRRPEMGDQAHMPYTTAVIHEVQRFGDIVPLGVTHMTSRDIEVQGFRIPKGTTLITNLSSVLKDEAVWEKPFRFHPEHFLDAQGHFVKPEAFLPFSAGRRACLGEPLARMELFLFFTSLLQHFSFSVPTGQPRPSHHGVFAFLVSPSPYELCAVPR

[15] = system: Liver cytosol; experiment: Drug metabolism in human liver cytosol assessed as (1R,2S,5S)-N-((2S,3R)-4-amino-1-cyclobutyl-3-hydroxy-4-oxobutan-2-yl)-3-((S)-2-(3-tert-butylureido)-3,3-dimethylbutanoyl)-6,6-dimethyl-3-azabicyclo[3.1.0]hexane-2-carboxamide formation per mg protein after 60 mins by LC-MS/MS/FSA method; assay type: ADME, tissue-based; conditions: 1 h
[16] = system: Liver cytosol; experiment: Ratio of Vmax to Km for drug metabolism in human liver cytosol assessed as (1R,2S,5S)-N-((2R,3R)-4-amino-1-cyclobutyl-3-hydroxy-4-oxobutan-2-yl)-3-((S)-2-(3-tert-butylureido)-3,3-dimethylbutanoyl)-6,6-dimethyl-3-azabicyclo[3.1.0]hexane-2-carboxamide formation per mg protein after 60 mins by LC-MS/MS/FSA method; assay type: ADME; conditions: 1 h
[17] = system: Liver cytosol; experiment: Drug metabolism in human liver cytosol assessed as (1R,2S,5S)-N-((2S,3R)-4-amino-1-cyclobutyl-3-hydroxy-4-oxobutan-2-yl)-3-((S)-2-(3-tert-butylureido)-3,3-dimethylbutanoyl)-6,6-dimethyl-3-azabicyclo[3.1.0]hexane-2-carboxamide formation after 60 mins by LC-MS/MS/FSA method; assay type: ADME, tissue-based; conditions: 1 h
[18] = system: Liver cytosol; experiment: Ratio of Vmax to Km for drug metabolism in human liver cytosol assessed as (1R,2S,5S)-N-((2S,3R)-4-amino-1-cyclobutyl-3-hydroxy-4-oxobutan-2-yl)-3-((S)-2-(3-tert-butylureido)-3,3-dimethylbutanoyl)-6,6-dimethyl-3-azabicyclo[3.1.0]hexane-2-carboxamide formation per mg protein after 60 mins by LC-MS/MS/FSA method; assay type: ADME; conditions: 1 h
[19] = system: Liver cytosol; experiment: Drug metabolism in human liver cytosol assessed as (1R,2S,5S)-N-((2R,3R)-4-amino-1-cyclobutyl-3-hydroxy-4-oxobutan-2-yl)-3-((S)-2-(3-tert-butylureido)-3,3-dimethylbutanoyl)-6,6-dimethyl-3-azabicyclo[3.1.0]hexane-2-carboxamide formation after 60 mins by LC-MS/MS/FSA method; assay type: ADME, tissue-based; conditions: 1 h
[20] = system: Liver cytosol; experiment: Drug metabolism in human liver cytosol assessed as (1R,2S,5S)-N-((2R,3R)-4-amino-1-cyclobutyl-3-hydroxy-4-oxobutan-2-yl)-3-((S)-2-(3-tert-butylureido)-3,3-dimethylbutanoyl)-6,6-dimethyl-3-azabicyclo[3.1.0]hexane-2-carboxamide formation per mg protein after 60 mins by LC-MS/MS/FSA method; assay type: ADME, tissue-based; conditions: 1 h
[21] = substrate: CC(C)(C)NC(=O)N[C@H](C(=O)N1C[C@H]2[C@@H]([C@H]1C(=O)NC(CC1CCC1)C(=O)C(N)=O)C2(C)C)C(C)(C)C; experiment: Activity of human recombinant AKR1C2 expressed in HEK293 cells assessed as (1R,2S,5S)-N-((2S,3R)-4-amino-1-cyclobutyl-3-hydroxy-4-oxobutan-2-yl)-3-((S)-2-(3-tert-butylureido)-3,3-dimethylbutanoyl)-6,6-dimethyl-3-azabicyclo[3.1.0]hexane-2-carboxamide formation after 120 mins in presence of NADPH by LC-MS/MS/FSA method; assay type: ADME, cell-based

Molecule | Compound recovery [1] [%] | Compound recovery [2] [%] | Compound recovery [3] [%] | Compound recovery [4] [%] | Compound recovery [5] [%] | Retention_time [6] [min] | Compound recovery [7] | Compound recovery [8] [%] | Compound recovery [9] [%] | Compound recovery [10] [%] | Compound recovery [11] [%] | Compound recovery [12] [%] | Compound recovery [13] [%] | Compound recovery [14] [%] | Vmax [15] [pmol/min] | Km [17] [µM] | Vmax/Km [18] [µL/min] | further results
CC(C)(C)NC(=O)N[C@H](C(=O)N1C[C@H]2[C@@H]([C@H]1C(=O)O)C2(C)C)C(C)(C)C | 4.2 | 0.24 | 1.1 | 0.29 | 0.58 | 16.6 | <= 10% | 2.22 | 4.57 | 0.22 | < 0.81 | 0.33 | 0.29 | – | – | – | – | –
CC(C)(C)NC(=O)N[C@H](C(=O)N1C[C@H]2[C@@H]([C@H]1C(N)=O)C2(C)C)C(C)(C)C | – | 0.61 | – | – | < 4.64 | 22.2 | 10% | 15.74 | < 3.45 | 2.06 | 2.87 | 2.9 | 1.37 | 1.9 | – | – | – | –
CC(C)(C)NC(=O)N[C@H](C(=O)N1C[C@H]2[C@@H]([C@H]1C(=O)NC(CC1CCC1)C(=O)C(N)=O)C2(C)C)C(C)(C)C (stereo in doubt) [BOCEPREVIR] | – | – | – | – | – | – | – | – | – | – | – | – | – | – | 28.6 | 13 | 2.2 | Vmax/Km [16]: 2.8 µL/min; Km [19]: 12.5 µM; Vmax [20]: 34.9 pmol/min
CC(C)(C)NC(=O)N[C@H](C(=O)N1C[C@H]2[C@@H]([C@H]1C(=O)N[C@@H](CC1CCC1)C(=O)C(N)=O)C2(C)C)C(C)(C)C [BOCEPREVIR] | 0.21 | 57.31 | 26.12 | 60.3 | 37.98 | 42.8 | >= 50% | 0.98 | – | 56.54 | 38.77 | 55.46 | 59.66 | 57.22 | 0.361 | 35.5 | 10.2 | Compound recovery ([9]; BLD = below limit of detection): BLD
B1 | – | – | – | – | – | – | – | – | – | – | – | – | – | – | – | – | – | Km [21]: 52.3 µM; Vmax [21]: 4.07e-05 µmol/min
